The text below walks through data of paper PMC8622385, “Metabolites of Prickly Rose: Chemodiversity and Digestive-Enzyme-Inhibiting Potential of Rosa acicularis and the Main Ellagitannin Rugosin D” (Plants, 2021).

As a reminder, the IC50 is the concentration at which inhibition is half-maximal.

What all share (assay type): biochemical
In one assay the target is T1, human pancreas α-amylase (Homo sapiens, UniProt P04746).
T1 construct: α-amylase from human pancreas; purchased Lee Biosolutions, Inc. Cat. No. 120-15; host or cells: human pancreas (tissue-derived)
T1 sequence (P04746 16-511): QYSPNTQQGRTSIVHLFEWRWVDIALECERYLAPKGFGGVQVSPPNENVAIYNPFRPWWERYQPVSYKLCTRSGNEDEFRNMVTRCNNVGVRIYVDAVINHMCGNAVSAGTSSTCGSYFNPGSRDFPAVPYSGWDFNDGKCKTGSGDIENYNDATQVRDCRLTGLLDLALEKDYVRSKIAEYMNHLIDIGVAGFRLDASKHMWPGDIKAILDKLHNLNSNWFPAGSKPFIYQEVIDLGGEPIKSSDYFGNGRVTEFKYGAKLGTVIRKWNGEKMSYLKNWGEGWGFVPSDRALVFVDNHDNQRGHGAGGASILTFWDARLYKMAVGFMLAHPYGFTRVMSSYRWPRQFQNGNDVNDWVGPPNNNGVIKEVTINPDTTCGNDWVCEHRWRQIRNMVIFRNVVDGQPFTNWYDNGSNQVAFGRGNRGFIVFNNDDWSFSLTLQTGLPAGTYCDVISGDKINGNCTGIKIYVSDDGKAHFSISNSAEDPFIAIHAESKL
Briefly: α-Amylase inhibitory activity, microplate spectrophotometric assay. The conditions noted are these: mean ± S.D.; read-out: IC50 against human pancreas α-amylase (converted). The source says:
(§1) The α-amylase-inhibiting potential of rugosin D was studied using a microplate spectrophotometric assay with three mammalian amylases, including α-amylase from porcine pancreas, α-amylase from human saliva and α-amylase from human pancreas.

In assay [1] the target is T2, porcine pancreas α-amylase (Sus scrofa, UniProt P00690).
T2 construct: α-amylase from porcine pancreas; purchased Sigma-Aldrich Cat. No. 6255; host or cells: porcine pancreas (tissue-derived)
T2 sequence (P00690 16-511): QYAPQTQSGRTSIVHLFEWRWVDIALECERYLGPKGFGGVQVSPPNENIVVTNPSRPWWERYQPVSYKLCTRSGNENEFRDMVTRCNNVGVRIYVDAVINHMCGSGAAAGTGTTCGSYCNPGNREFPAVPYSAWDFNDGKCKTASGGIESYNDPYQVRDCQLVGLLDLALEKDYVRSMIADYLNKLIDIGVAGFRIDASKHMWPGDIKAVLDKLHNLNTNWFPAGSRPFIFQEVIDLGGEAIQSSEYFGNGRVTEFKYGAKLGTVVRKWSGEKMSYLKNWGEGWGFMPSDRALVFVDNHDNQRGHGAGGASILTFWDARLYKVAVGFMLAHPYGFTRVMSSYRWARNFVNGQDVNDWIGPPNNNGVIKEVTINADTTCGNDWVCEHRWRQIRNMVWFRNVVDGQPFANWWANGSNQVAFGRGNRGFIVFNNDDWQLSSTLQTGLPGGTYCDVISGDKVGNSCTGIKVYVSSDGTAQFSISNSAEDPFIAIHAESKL
The description is as above. The conditions noted are these: mean ± S.D.; read-out: IC50 against porcine pancreas α-amylase (converted).
From the text: as §1

In the next assay the target is T3, human saliva α-amylase (Homo sapiens, UniProt P0DUB6).
T3 construct: α-amylase from human saliva; purchased Sigma-Aldrich Cat. No. 0521; host or cells: human saliva
T3 sequence (P0DUB6 16-511): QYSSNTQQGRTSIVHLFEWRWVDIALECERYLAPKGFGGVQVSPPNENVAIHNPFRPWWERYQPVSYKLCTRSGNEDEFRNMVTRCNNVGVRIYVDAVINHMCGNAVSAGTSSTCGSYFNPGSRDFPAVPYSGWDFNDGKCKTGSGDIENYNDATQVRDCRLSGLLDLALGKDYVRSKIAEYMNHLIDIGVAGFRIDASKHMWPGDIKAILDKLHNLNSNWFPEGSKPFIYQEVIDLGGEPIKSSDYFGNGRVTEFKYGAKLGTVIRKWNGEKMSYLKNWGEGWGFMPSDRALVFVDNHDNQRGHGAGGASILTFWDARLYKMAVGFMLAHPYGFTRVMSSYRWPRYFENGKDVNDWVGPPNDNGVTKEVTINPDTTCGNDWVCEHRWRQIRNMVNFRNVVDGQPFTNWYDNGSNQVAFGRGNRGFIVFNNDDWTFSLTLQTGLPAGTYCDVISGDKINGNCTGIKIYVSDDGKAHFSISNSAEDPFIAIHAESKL
The description is as above. The conditions noted are these: mean ± S.D.; read-out: IC50 against human saliva α-amylase (converted).
From the text: as §1

Assay [2] deals with T4, porcine pancreatic lipase (Sus scrofa, UniProt P00591).
T4 construct: lipase from porcine pancreas; purchased Sigma-Aldrich L3126 (lipase); C3028 (colipase); host or cells: porcine pancreas (tissue-derived)
T4 sequence (P00591 1-450): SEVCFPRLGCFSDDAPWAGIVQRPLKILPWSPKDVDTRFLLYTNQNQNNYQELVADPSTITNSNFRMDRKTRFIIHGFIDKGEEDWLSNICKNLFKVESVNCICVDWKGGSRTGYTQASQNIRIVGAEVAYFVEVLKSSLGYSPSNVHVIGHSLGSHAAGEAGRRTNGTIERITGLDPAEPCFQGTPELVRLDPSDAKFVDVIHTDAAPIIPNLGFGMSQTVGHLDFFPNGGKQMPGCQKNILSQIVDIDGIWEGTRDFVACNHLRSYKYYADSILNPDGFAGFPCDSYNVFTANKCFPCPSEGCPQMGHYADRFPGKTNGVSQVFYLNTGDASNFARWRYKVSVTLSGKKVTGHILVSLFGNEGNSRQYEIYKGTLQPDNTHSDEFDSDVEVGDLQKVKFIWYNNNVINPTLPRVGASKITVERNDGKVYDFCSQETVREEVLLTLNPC
T4 sequence (P02703 23-112 partner): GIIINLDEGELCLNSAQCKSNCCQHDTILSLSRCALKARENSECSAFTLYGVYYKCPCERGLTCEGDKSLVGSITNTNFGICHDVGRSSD
Briefly: Simulated gastrointestinal digestion of artificial substrate mixture, lipase activity (4-methylumbelliferone marker, HPLC-DAD). The conditions noted are these: doses of 1–1000 μg/mL.
From the text: To study the inhibitory potential of R. acicularis extracts on the digestive enzymes, we used the standardized static, simulated gastrointestinal digestion method of Minekus et al., based on physiologically relevant conditions of digestion [77]. In brief, the artificial substrate mixture, including ethylidene-p-nitrophenyl-α-D-maltoheptaoside (as a carbohydrate model), Nα-benzoyl-L-arginine-7-amino-4-methylcoumarin hydrochloride (as a protein model) and 4-methylumbelliferyl heptanoate (as a lipid model), was digested with extracts of R. acicularis leaves, flowers, roots and fruits (in doses of 100 μg/mL and 1000 μg/mL) by gastric and intestinal enzymatic and electrolyte mixtures (or juices). […] In a final step, concentrations of specific markers, such as p-nitrophenol, 7-amino-4-methylcoumarin and 4-methylumbelliferone, released from an artificial nutrient mixture, were analyzed by an HPLC-DAD assay. […]
For simulation, the known standardized static gastrointestinal digestion method of Minekus et al. [77] was used with no variation. […] The supernatant was analyzed using an HPLC-DAD assay (Section 3.7) to quantify the level of markers as p-nitrophenol, 7-amino-4-methylcoumarin and 4-methylumbelliferone formed from ethylidene-p-nitrophenyl-α-D-maltoheptaoside, Nα-benzoyl-L-arginine- 7-amino-4-methylcoumarin hydrochloride and 4-methylumbelliferyl heptanoate, respectively. […]

The structures appear in SMILES notation.

On to `O=C(O[C@@H]1O[C@@H]2COC(=O)c3cc(Oc4c(C(=O)O[C@@H]5O[C@@H]6COC(=O)c7cc(O)c(O)c(O)c7-c7c(cc(O)c(O)c7O)C(=O)O[C@H]6[C@H](OC(=O)c6cc(O)c(O)c(O)c6)[C@H]5OC(=O)c5cc(O)c(O)c(O)c5)cc(O)c(O)c4O)c(O)c(O)c3-c3c(cc(O)c(O)c3O)C(=O)O[C@H]2[C@H](OC(=O)c2cc(O)c(O)c(O)c2)[C@H]1OC(=O)c1cc(O)c(O)c(O)c1)c1cc(O)c(O)c(O)c1` [Rugosin D], for which the half-inhibitory concentration (IC50) was 16.4 µM on human pancreas α-amylase, 17.1 µM in assay [1] and 36 µM on human saliva α-amylase. Moreover, the “Inhibition of lipase activity in simulated digestion (in words)” value in assay [2] is listed as “not substantially inhibited”.
